Measurements: US6503881B2 (priority 1996, dated 2003)
Read-outs that look alike come from different tables or passages of the source. Peptide text beside a SMILES is read from it.

Key:
[1] = A. calcoaceticus AC002, agarose dilution
[2] = E. cloacae ECL007, agarose dilution
[3] = E. coli ECO005, agarose dilution
[4] = E. faecalis EFS001, agarose dilution
[5] = E. faecalis EFS008, agarose dilution
[6] = K. pneumoniae KP001, agarose dilution
[7] = P. aeruginosa PA004, agarose dilution
[8] = S. aureus SA014, agarose dilution
[9] = S. aureus SA093, agarose dilution
[10] = S. epidermidis SE010, agarose dilution
[11] = S. maltophilia SMA002, agarose dilution
[12] = S. marcescens SMS003, agarose dilution

| Molecule | MIC (bacteria; [1]) [µg/mL] | MIC (bacteria; [2]) [µg/mL] | MIC (bacteria; [3]) [µg/mL] | MIC (bacteria; [4]) [µg/mL] | MIC (bacteria; [5]) [µg/mL] | MIC (bacteria; [6]) [µg/mL] | MIC (bacteria; [7]) [µg/mL] | MIC (bacteria; [8]) [µg/mL] | MIC (bacteria; [9]) [µg/mL] | MIC (bacteria; [10]) [µg/mL] | MIC (bacteria; [11]) [µg/mL] | MIC (bacteria; [12]) [µg/mL] | MIC (bacteria; E. cloacae ECL007) [µg/mL] | MIC (bacteria; S. epidermidis SE010) [µg/mL] | MIC (bacteria; S. maltophilia SMA002) [µg/mL] | MIC (bacteria; S. marcescens SMS003) [µg/mL] | other results |
| --- | --- | --- | --- | --- | --- | --- | --- | --- | --- | --- | --- | --- | --- | --- | --- | --- | --- |
| CC[C@H](C)[C@H](NC(=O)[C@H](CC(C)C)NC(=O)[C@H](C)NC(=O)[C@@H]1CCCN1C(=O)[C@H](CC(C)C)NC(=O)[C@H](C)NC(=O)[C@@H](NC(=O)[C@@H](NC(=O)[C@@H](NC(=O)[C@@H](NC(=O)[C@H](CCCCN)NC(=O)[C@H](CCCCN)NC(=O)[C@H](CC(C)C)NC(=O)[C@@H](NC(=O)[C@H](CCCCN)NC(=O)[C@@H](NC(=O)[C@H](CC(C)C)NC(=O)[C@H](CC(N)=O)NC(=O)[C@H](CCCCN)NC(=O)[C@@H](NC(=O)[C@H](Cc1ccccc1)NC(=O)[C@H](CO)NC(=O)[C@H](CCCCN)NC(=O)[C@H](Cc1c[nH]c2ccccc12)NC(=O)[C@@H](N)CCCCN)[C@@H](C)CC)[C@@H](C)O)C(C)C)C(C)C)C(C)C)[C@@H](C)O)[C@@H](C)O)C(=O)N[C@@H](CO)C(=O)O [MBI 29A2, KWKSFIKNLTKVLKKVVTTALPALIS] (H-KWKSFIKNLTKVLKKVVTTALPALIS-OH; N-terminus and C-terminus assumed) | – | – | – | – | – | – | – | – | – | – | – | – | – | – | – | – | Peptide MI Alone (bacterial isolates; P. aeruginosa PA24 (Ciprofloxacin section)): 64 µg/mL; Peptide MI Alone (bacterial isolates; S. aureus SA10 (Ciprofloxacin section)): 4 µg/mL; Peptide MI Alone (bacterial isolates; S. aureus SA93 (Ciprofloxacin section)): 2 µg/mL |
| I L K K W P W W P W R R [MBI 11G7CN] | – | – | – | – | – | – | – | – | – | – | – | – | – | – | – | – | Peptide MIC + Piperacillin (bacterial isolates; A. calcoaceticus 3): 2 µg/mL; Peptide MIC Alone (bacterial isolates; A. calcoaceticus 3): 4 µg/mL; Piperacillin MIC + Peptide (bacterial isolates; A. calcoaceticus 3): 4 µg/mL |
| I L R W P W W P W A R K [MBI 11H10CN] | 4 | >128 | 16 | 2 | 8 | 16 | >128 | 4 | 1 | 4 | 64 | >128 | – | – | – | – | – |
| I L R W P W W P W R A K [MBI 11H11CN] | 4 | >128 | 16 | 2 | 8 | 16 | >128 | 4 | 1 | 4 | 64 | >128 | – | – | – | – | – |
| I L R W P W W P W R R A [MBI 11H12CN] | 4 | >128 | 16 | 2 | 8 | 16 | >128 | 2 | 1 | 4 | 64 | >128 | – | – | – | – | – |
| ILRWPWWPWRRKDMILKKAGS [MBI 11B18CN] | – | – | – | – | – | – | – | – | – | – | – | – | >128 | 4 | 64 | >128 | MIC (bacteria; A. calcoaceticus AC002): 2 µg/mL; MIC (bacteria; E. coli ECO005): 32 µg/mL; MIC (bacteria; E. faecalis EFS008): 4 µg/mL; MIC (bacteria; K. pneumoniae KP001): 32 µg/mL; MIC (bacteria; P. aeruginosa PA004): >128 µg/mL; MIC (bacteria; S. aureus SA093): 2 µg/mL |
| ILRWPWWPWRRKMILKKAGS [MBI 11B17CN] | – | – | – | – | – | – | – | – | – | – | – | – | >128 | 4 | 32 | >128 | MIC (bacteria; A. calcoaceticus AC002): 2 µg/mL; MIC (bacteria; E. coli ECO005): 8 µg/mL; MIC (bacteria; E. faecalis EFS008): 4 µg/mL; MIC (bacteria; K. pneumoniae KP001): 16 µg/mL; MIC (bacteria; P. aeruginosa PA004): >128 µg/mL; MIC (bacteria; S. aureus SA093): 2 µg/mL |
| I L R W P W W P W R R K [MBI 11B7CNF12] | 4 | >128 | 16 | 2 | 8 | 16 | >128 | 2 | 1 | 4 | 64 | >128 | – | – | – | – | – |
| I L R Y V Y Y V Y R R K [MBI 11A8CN] | – | – | – | – | – | – | – | – | – | – | – | – | >128 | 6 | 32 | >128 | MIC (bacteria; A. calcoaceticus AC002): 8 µg/mL; MIC (bacteria; E. coli ECO005): 32 µg/mL; MIC (bacteria; E. faecalis EFS001): 4 µg/mL; MIC (bacteria; K. pneumoniae KP001): 128 µg/mL; MIC (bacteria; P. aeruginosa PA004): >128 µg/mL; MIC (bacteria; S. aureus SA093): 1 µg/mL |
| K R R W P W W P W R L I [MBI 11B7CNR] | – | – | – | – | – | – | – | – | – | – | – | – | 64 | 4 | 32 | >128 | MIC (bacteria; A. calcoaceticus AC002): 4 µg/mL; MIC (bacteria; E. coli ECO005): 8 µg/mL; MIC (bacteria; E. faecalis EFS001): 4 µg/mL; MIC (bacteria; K. pneumoniae KP001): 8 µg/mL; MIC (bacteria; P. aeruginosa PA004): 64 µg/mL; MIC (bacteria; S. aureus SA093): 2 µg/mL |
| K R R W V W W V W R L I [MBI 11F4CNR] | – | – | – | – | – | – | – | – | – | – | – | – | 32 | 3 | 32 | >128 | MIC (bacteria; A. calcoaceticus AC002): 16 µg/mL; MIC (bacteria; E. coli ECO005): 32 µg/mL; MIC (bacteria; E. faecalis EFS008): 32 µg/mL; MIC (bacteria; K. pneumoniae KP001): 32 µg/mL; MIC (bacteria; P. aeruginosa PA004): 64 µg/mL; MIC (bacteria; S. aureus SA093): 8 µg/mL |
| L K K W P W W P W R R K [MBI 11D1CN] | – | – | – | – | – | – | – | – | – | – | – | – | >128 | 8 | – | >128 | MIC (bacteria; A. calcoaceticus AC001): >128 µg/mL; MIC (bacteria; E. coli ECO002): 16 µg/mL; MIC (bacteria; E. faecalis EFS002): 32 µg/mL; MIC (bacteria; E. faecium EFM001): 16 µg/mL; MIC (bacteria; K. pneumoniae KP002): 64 µg/mL; MIC (bacteria; P. aeruginosa PA003): >128 µg/mL; MIC (bacteria; S. aureus SA004): 2 µg/mL; MIC (bacteria; S. maltophilia SMA001): 64 µg/mL |
| L R W W W P W R R K [MBI 11G25CN] | 2 | >128 | 8 | 2 | 16 | 16 | 64 | 2 | 1 | 2 | 32 | >128 | – | – | – | – | – |
| P W W P W R R K [MBI 11D3CN] | – | – | – | – | – | – | – | – | – | – | – | – | >128 | – | – | – | MIC (bacteria; A. calcoaceticus AC001): >128 µg/mL; MIC (bacteria; E. coli ECO002): 64 µg/mL; MIC (bacteria; E. faecalis EFS002): 32 µg/mL; MIC (bacteria; E. faecium EFM003): 8 µg/mL; MIC (bacteria; K. pneumoniae KP002): >128 µg/mL; MIC (bacteria; P. aeruginosa PA024): >128 µg/mL; MIC (bacteria; S. aureus SA009): 8 µg/mL; MIC (bacteria; S. maltophilia SMA001): 64 µg/mL; MIC (bacteria; S. marcescens SMS004): >128 µg/mL |
| W R W W K P K W R W P K W [MBI 11J02CN] | 4 | 64 | 4 | 4 | 16 | 4 | 32 | 2 | 1 | 2 | 8 | >128 | – | – | – | – | – |
| W W K K W P W W P W R R K [MBI 11C5CN] | – | – | – | – | – | – | – | – | – | – | – | – | >128 | – | 16 | – | MIC (bacteria; A. calcoaceticus AC001): 32 µg/mL; MIC (bacteria; E. coli ECO001): 8 µg/mL; MIC (bacteria; E. faecalis EFS002): 16 µg/mL; MIC (bacteria; E. faecium EFM003): 2 µg/mL; MIC (bacteria; K. pneumoniae KP002): 16 µg/mL; MIC (bacteria; P. aeruginosa PA003): 64 µg/mL; MIC (bacteria; S. aureus SA009): 2 µg/mL; MIC (bacteria; S. epidermidis SE002): 2 µg/mL; MIC (bacteria; S. marcescens SMS004): >28 µg/mL |
| W W P W R R K [MBI 11D9M8] | 128 | >128 | >128 | 8 | 128 | >128 | >128 | 128 | 8 | 128 | >128 | >128 | – | – | – | – | MIC (bacteria; E. faecalis EFS002): 128 µg/mL; MIC (bacteria; E. faecium EFM002): 32 µg/mL; MIC (bacteria; S. aureus SA007): 32 µg/mL; MIC (bacteria; S. aureus SA016): 128 µg/mL |
| W W R W P W W P W R R K [MBI 11A10CN] | 4 | 64 | 16 | 4 | 16 | 16 | 64 | 4 | 2 | 4 | 32 | >128 | – | – | – | – | – |
| i L K K W P W W P W R R k [MBI 11E3CN] | – | – | – | – | – | – | – | – | – | – | – | – | >128 | – | – | – | MIC (bacteria; A. calcoaceticus AC001): 16 µg/mL; MIC (bacteria; E. coli ECO001): 4 µg/mL; MIC (bacteria; E. faecalis EFS004): 8 µg/mL; MIC (bacteria; E. faecium EFM003): 2 µg/mL; MIC (bacteria; H. influenzae HIN002): >128 µg/mL; MIC (bacteria; K. pneumoniae KP002): 32 µg/mL; MIC (bacteria; P. aeruginosa PA041): 64 µg/mL; MIC (bacteria; P. mirabilis PM001): >128 µg/mL; MIC (bacteria; S. aureus SA010): 2 µg/mL; MIC (bacteria; S. epidermidis SE002): 1 µg/mL; MIC (bacteria; S. maltophilia SMA001): 32 µg/mL; MIC (bacteria; S. marcescens SMS004): >128 µg/mL; MIC (bacteria; S. pneumoniae SBSPN2): >128 µg/mL; MIC (bacteria; S. pneumoniae SPN044): >128 µg/mL; MIC (bacteria; S. pyogenes SPY002): 16 µg/mL |
